# Reference: patent US20150004620A1, “METHOD OR DEVICE FOR IDENTIFYING INHIBITOR OF EPITHELIAL MESENCHYMAL TRANSITION” (Agency for Science, Technology and Research, priority 2011, published 2015)
# Key:
# Format in all cases: cell-based
# [1] = tested on: ovarian carcinoma cell lines; assay: Phase contrast cell morphology, ovarian carcinoma cell lines; conditions: A2780J, DOV13 and HEY cell lines, 2 μM for 48 hours vs 0.02% DMSO
# Description: Cell lines were treated with 2 μM AZD0530 or 0.02% DMSO control for 48 hours. Scale bar is 200 μm. Thus, FIG. 9 provides an example of how the method as described herein may be validated by the use of various ovarian carcinoma cell lines.
# [2] = tested on: EGF-induced EMT in NBT-II cells; assay: EMT spot migration assay, EGF-induced; conditions: EGF-induced EMT (20 ng/ml EGF), NBT-II cells, CDR dose response from 6.67 μM; read-out: Cell Dispersion IC 50, EGF
# Description: NBT-II cells were stably transfected with mcherry-fluorescent H2B and maintained in DMEM supplemented with 10% fetal bovine serum (FBS, Thermo Scientific), 1 μg/ml puromycin (Sigma) and 100 units/ml penicillin-streptomycin (1× pen-strep, Invitrogen). Cells were grown to 80% confluency in tissue culture flasks prior to plating. Cells were trypsinized and concentrated to a density of 5×10^6 cell/ml in CO2-independent medium (Invitrogen) supplemented with 10% FBS. The cell suspension was then evenly dispersed into the wells of two columns of a 96-well V-bottom plate. Using a robotic liquid-handling station (Bravo, Agilent Technologies), 0.5 μl of cell suspension was transferred from the two columns of the cell suspension-loaded plate and deposited into the center of the wells of two columns of a 96-well clear bottom, black assay plate (Corning). This process was repeated six times so that all 96 wells of the assay plate were deposited with a cell suspension spot. The plate was then sealed to minimize evaporation of the cell suspension spots and transferred to a 37° C., 5% CO2 incubator to allow for cells to attach to the culture surface. After 1 hour, the plate was gently washed with medium once to remove unattached cells, refreshed with 100 μl of assay medium (DMEM supplemented with 10% FBS and 1× pen-strep), and then further incubated to allow for cell-cell contacts to establish in the cell colonies.
# Four tiled, non-overlapping images were acquired around the center of each well, and were then stitched together during image analysis to generate a montage covering an area of 3.2 mm×3.2 mm. These images (T1) represent the initial state of the cell colonies before EMT induction.
# After the T1 images were acquired, 1 μl of test compounds were transferred from compound stock plates and added to the assay plates. Appropriate negative controls (1 μl DMSO) and positive controls (1 μl 1.0 mM compound in DMSO) were also added into columns 1 and 12 of each assay plate, respectively. […] The cultures were then further incubated overnight.
# The next day, 50 μl of growth factor-containing medium was added to each well of the assay-plates. For each of the growth factor-induced EMT spot migration assays, the final growth factor concentrations in each well is optimized to be 20 ng/ml EGF (Sigma), 4 ng/ml HGF (Calbiochem) or 150 ng/ml IGF-1 (R&D Systems), respectively. The cultures were then incubated for another 24 hours, to allow for EMT and sufficient cell motility/dispersion to occur in the cell colonies.
# Finally, the cell colonies were imaged again using the microplate imager, as described above. These images (T2) represent the final state of the cell colonies after compound treatment and EMT induction. The acquired T1 and T2 image sets for each assay plate were then sent for image analysis.
# The acquisition of each well was obtained by four adjacent field images with no interstice in between. Each field image was loaded and nuclei were initially segmented independently of other fields to prevent artifact at the field border. Nuclei segmentation was achieved by combining a wavelet transform which is robust to noise and unhomogeneous background, and a watershed algorithm based on intensities to split nuclei clusters. Mask of nuclei segmentation of the different fields were then stitched together in order to obtain a large segmentation of the whole well. Cell bodies were estimated by applying a morphological dilation on the nucleus segmentation using a disk of 30 pixels (48 μm) in diameter. In cells that are contiguous, such as in a cell colony, nuclei segmentation dilation will result in the formation of continuous region areas with surrounding cells which can then be identified as colonies.
# Total cell number and spreading coefficient values for each well were then exported into an Excel sheet.
# [3] = tested on: ovarian carcinoma cell lines; assay: Cell movement tracking time-lapse videoscopy; conditions: 2 μM for 48 hours, tracked for 24 hours
# Description: Cells were maintained in RMPI supplemented with 10% fetal bovine serum and 1× pen-strep. Cells were grown to 80% confluency in tissue culture flasks prior to plating. Cells were trysinized and plated onto a 12-well plate (BD) at a low density of 2000 cells per well in 1 ml of RMPI. Each ovarian cell line was seeded into two wells of a 12 well tissue culture plate. For each ovarian cell line, one of the two wells was treated with 2 μM AZD0530 and the other well treated with 0.02% DMSO control for 48 hours. Cells were imaged using a time-lapse video microscope incubator system (Leica) controlled by Metamorph software (Molecular Devices). Time-lapse images were taken at 5 min intervals for 24 hours and saved as tiff format. Each individual tiff images were compiled into stack images using the stack creation function in Metamorph. Each cell was tracked using the particle tracking function in Metamorph software. The tracking function detected and recorded the x and y coordinates of the cell being tracked for each image in the stack. The x and y coordinates were used to plot the track of the individual cell in excel. The total distance travelled, displacement and average velocity of the tracked cell were then tabulated.
# [4] = tested on: lung carcinoma cell lines; assay: Phase contrast cell morphology, lung carcinoma cell lines; conditions: A549, Calu-1 and H165.0 cell lines, 2 μM for 48 hours vs 0.02% DMSO
# Description: Cell lines were treated with 2 μM AZD0530 or 0.02% DMSO control for 48 hours. Scale bar is 100 μm. Thus, FIG. 8 provides an example of how the method as described herein may be validated by the use of various lung carcinoma cell lines.
# [5] = panel of ovarian carcinoma cell lines
smiles,measurement,setting,value
CN1CCN(CCOc2cc(OC3CCOCC3)c3c(Nc4c(Cl)ccc5c4OCO5)ncnc3c2)CC1 [AZD0530],Cell morphology (phase contrast),[1],compaction of cell morphology
same,IC50,[2],560 nM
same,Mobility (individual cell tracks),[3]; ovarian carcinoma cell lines,suppression of the mobility
same,Average displacement cells migrate,[3]; [5],decrease
same,Average velocity of cell migrations,[3]; [5],decrease
same,Cell morphology (phase contrast),[4],compaction of cell morphology
